Experimental data: PMC3699461, “Ground State Destabilization by Anionic Nucleophiles Contributes to the Activity of Phosphoryl Transfer Enzymes” (PLoS Biology, 2013)
“And” between values parts separate entries of the source, which are not always exact repeats. Identical values can stand only once. Like-named read-outs stand apart in the source and are kept apart here.

How the values were obtained:
R166S AP = R166S AP (Escherichia coli, UniProt P00634, R188S); conditions: fit of Figure 4B, two-state model
R166S AP, sequence (P00634 23-471 R188S): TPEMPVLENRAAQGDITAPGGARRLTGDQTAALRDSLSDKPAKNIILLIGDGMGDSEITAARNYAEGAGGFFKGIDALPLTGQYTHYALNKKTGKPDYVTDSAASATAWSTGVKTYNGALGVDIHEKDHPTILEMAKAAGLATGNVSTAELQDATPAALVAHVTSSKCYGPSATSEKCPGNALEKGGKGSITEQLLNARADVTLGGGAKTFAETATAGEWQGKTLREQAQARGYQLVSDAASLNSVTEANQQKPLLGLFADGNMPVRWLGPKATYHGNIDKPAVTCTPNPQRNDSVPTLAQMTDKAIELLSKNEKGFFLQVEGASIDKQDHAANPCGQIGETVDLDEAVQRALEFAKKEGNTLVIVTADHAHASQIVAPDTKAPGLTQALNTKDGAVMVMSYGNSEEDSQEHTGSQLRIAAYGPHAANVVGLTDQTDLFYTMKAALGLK
Procedure: The tungstate affinity for R166S AP was determined by inhibition of pNPP hydrolysis as was done previously with WT AP [20], but under the standard buffer conditions used in this work. A range of tungstate concentrations was used from at least 5-fold below and above the inhibition constant at each pH.

S102G/R166S AP [1] = biological target: T1, S102G/R166S AP (Escherichia coli, UniProt P00634, R188S/S124G); conditions: fit of Figure 4B, two-state model
T1 sequence (P00634 23-471 S124G/R188S): as the sequence (P00634 23-471 R188S) above, with S102G counted along it
Procedure: (§4) After this first incubation, trace ^32Pi was added and the sample was incubated further to allow ^32Pi binding to complete.

WT AP [2] = biological target: T2, WT AP (Escherichia coli, UniProt P00634)
T2 sequence (P00634 22-471): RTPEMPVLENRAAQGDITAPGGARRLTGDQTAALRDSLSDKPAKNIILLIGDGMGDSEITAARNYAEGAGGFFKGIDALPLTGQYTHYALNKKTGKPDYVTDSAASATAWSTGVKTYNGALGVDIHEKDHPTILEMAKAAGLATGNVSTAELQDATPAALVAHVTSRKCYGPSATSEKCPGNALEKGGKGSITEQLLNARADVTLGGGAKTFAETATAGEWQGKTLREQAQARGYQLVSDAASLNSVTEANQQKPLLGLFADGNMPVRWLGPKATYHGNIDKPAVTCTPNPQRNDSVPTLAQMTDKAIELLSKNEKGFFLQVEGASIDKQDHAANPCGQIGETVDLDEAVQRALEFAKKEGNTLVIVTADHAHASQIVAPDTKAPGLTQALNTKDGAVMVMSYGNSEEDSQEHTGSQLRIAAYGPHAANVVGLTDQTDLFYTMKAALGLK
Procedure: as §4
A competition-binding assay at pH 8.0 for WT AP (see Materials and Methods for assay details) under the standard buffer conditions.

[3] = ionic strength I = 0.1 for the value 6.9; cited from earlier work
WT AP [4] = biological target: T2, WT AP; conditions: cited from earlier work
S102G/R166S AP [5] = biological target: T1, S102G/R166S AP; conditions: Table 2
Source text: (§1) The following buffers were used over the indicated pH ranges: NaAcetate (4.5–5.5), NaMES (5.5), NaMaleate (6.0–6.5), Tris•HCl (7.0–7.5), NaMOPS (7.0–8.0), NaCHES (8.5–9.0), and NaCAPS (10–10.5).
(§2) The retentate is expected to contain both free and bound ^32Pi. […] Scintillation counting of both the filtrate and retentate was used to measure the concentrations of free and bound ^32Pi at the various AP concentrations, and the fraction ^32Pi bound dependence on the AP concentration was used to determine dissociation constants using a modified binding equation, f bound = (C)×([AP]/([AP]+K [drawing 148] ))+(1–C), where C allows for background levels of apparent binding in the absence of protein.
(§3) To measure the uptake of ^32Pi by the AP sample, the fraction of ^32Pi bound was measured over time starting just after the addition of ^32Pi to the AP samples.

S102G AP = S102G AP (Escherichia coli, UniProt P00634, S124G); conditions: for trianion versus dianion differential affinity: S102G AP, Table 2
S102G AP, sequence (P00634 23-471 S124G): as the sequence (P00634 23-471 R188S) above, with S102G, S166R counted along it
Source text: as §2, §3

[6] = cited from earlier work
WT AP [7] = biological target: T2, WT AP; conditions: 0.1–10 µM WT AP, standard buffer
Source text: as §1, §2, §3

WT Stp1 = WT Stp1 (Schizosaccharomyces pombe, UniProt P41893); conditions: pH 6.0, protein up to 500 µM
WT Stp1, sequence (P41893 whole entry): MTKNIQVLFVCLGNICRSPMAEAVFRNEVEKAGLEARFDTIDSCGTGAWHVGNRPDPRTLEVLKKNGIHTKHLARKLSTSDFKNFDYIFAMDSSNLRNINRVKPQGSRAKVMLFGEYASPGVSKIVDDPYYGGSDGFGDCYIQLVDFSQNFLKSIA
Source text: The buffer conditions, pH, and temperature were the same as those for the WT Stp1 kinetic inhibition assays (Figure S14A).
(EPS) Click here for additional data file.

[8] = biological target: AP with mutation of Arg166; conditions: read-out: Pi binding constant of Arg166 mutants; pH 8.0; cited from earlier work

For `[O]=[W](=[O])([O-])[O-]` [tungstate], which “pH-independent dissociation constant for tungstate binding” value (R166S AP) is on record?
Its value is 170±25 µM.

What about the “pH-independent dissociation constant for tungstate binding” value (S102G/R166S AP [1]) of the same compound?
Its value is 890±90 µM.

What about the “pH-independent dissociation constant for tungstate dianion binding” value (WT AP [2]; equilibrium-binding assay via competition with 32Pi, dashed line) of the same compound?
The value was 2.06±0.48 µM.

What about the Kd (WT AP [2]; read-out: dissociation constant for tungstate binding, pH 8.0, standard buffer) of the same compound?
The Kd was 0.9 ± 0.2 µM.

And the “solution pKa” value [3]?
The value was about 4.

What about the “pH-independent dissociation constant for tungstate dianion binding” value (WT AP [4]; kinetic inhibition, solid line, data from ref 20) of the same compound?
The value was 0.57±0.11 µM.

What about the Kd (WT AP [4]; read-out: dissociation constant for tungstate binding, pH 8.0) of the same compound?
Its Kd is 1.1 µM.

Which “trianion versus dianion differential affinity” value (S102G/R166S AP [5]) does the source give for `O=P(O)(O)O` [PO4^3-] here?
The value was 4.3×10^5 fold.

What about the “trianion versus dianion differential affinity” value (S102G AP) of the same compound?
The value was 10^7 fold.

What about the “trianion versus dianion differential affinity” value (S102G AP; listed as PO) of the same compound?
Its value is ~ 10^7 fold.

What about the “destabilization of Pi trianion binding by the Ser102 alkoxide” value (S102G AP; WT AP versus S102G AP) of the same compound?
Its value is ≥ 10^8 fold.

For `COP(=O)(O)O` [methyl phosphate dianion, methyl phosphate], which “kuncat, uncatalyzed hydrolysis” value ([6]; 25 °C, 44 of the supplement) is on record?
The value was ~ 4×10^-22 M^-1s^-1.

And the “kuncat, uncatalyzed hydrolysis” value [6]?
The value was about 4e-22 M⁻¹ s⁻¹.

With `Nc1nc2c(ncn2[C@@H]2O[C@H](COP(=O)(O)OP(=O)(O)OP(=O)(O)O)[C@@H](O)[C@H]2O)c(=O)[nH]1` [GTP] as the compound, how does the “kuncat, uncatalyzed hydrolysis” value ([6]; 25 °C, 44 of the supplement) read?
Its value is ~ 5×10^-11 M^-1s^-1.

With `O=P(O)(O)O` [Pi, inorganic phosphate] as the compound, how does the “observed 32Pi uptake rate constant kobs” value (WT AP [7]) read?
The value was at least 0.03 s⁻¹.

And the “Pi binding in the equilibrium-binding assay” value (WT Stp1)?
The value was “No significant Pi binding”.

And the Ki [8]?
Its Ki is 460 µM and 640 µM.

For `Nc1ncnc2c1ncn2[C@@H]1O[C@H](COP(=O)(O)OP(=O)(O)OP(=O)(O)O)[C@@H](O)[C@H]1O` [ATP], which “kuncat, uncatalyzed hydrolysis” value ([6]; 25 °C, 44 of the supplement) is on record?
The value was ~ 5×10^-11 M^-1s^-1.
